Tests used:
Assay in all cases: DSF 100 kinase selectivity screen;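 further: compound tested at 20 µM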
Assay type in all cases: binding
[1] = target: T1, ~100 representative kinases (Homo sapiens, UniProt Q13554); settings: Protein CAMK2B; average of three replicates
T1 construct: Recombinant protein kinase domains with a concentration of 2 μM
Method: (§1) Recombinant protein kinase domains with a concentration of 2 μM were mixed with a 20 μM compound solution in dimethyl sulfoxide (DMSO), 20 mM Hepes (pH 7.5), and 500 mM NaCl. SYPRO Orange (5000×, Invitrogen) was added as a fluorescence probe (1μl/ml). Subsequently, temperature-dependent protein unfolding profiles were measured using the QuantStudio 5 realtime PCR machine (Thermo Fisher Scientific, Waltham, MA, USA). […] The temperature was raised with a step rate of 3°C/min. […] Differences in melting temperature are given as ΔTm values in degrees Celsius. […]

[2] = target: T2, ~100 representative kinases (Homo sapiens, UniProt P54753); settings: Protein EPHB3A; average of three replicates
T2 construct: Recombinant protein kinase domains with a concentration of 2 μM
T2 sequence (P54753 34-998): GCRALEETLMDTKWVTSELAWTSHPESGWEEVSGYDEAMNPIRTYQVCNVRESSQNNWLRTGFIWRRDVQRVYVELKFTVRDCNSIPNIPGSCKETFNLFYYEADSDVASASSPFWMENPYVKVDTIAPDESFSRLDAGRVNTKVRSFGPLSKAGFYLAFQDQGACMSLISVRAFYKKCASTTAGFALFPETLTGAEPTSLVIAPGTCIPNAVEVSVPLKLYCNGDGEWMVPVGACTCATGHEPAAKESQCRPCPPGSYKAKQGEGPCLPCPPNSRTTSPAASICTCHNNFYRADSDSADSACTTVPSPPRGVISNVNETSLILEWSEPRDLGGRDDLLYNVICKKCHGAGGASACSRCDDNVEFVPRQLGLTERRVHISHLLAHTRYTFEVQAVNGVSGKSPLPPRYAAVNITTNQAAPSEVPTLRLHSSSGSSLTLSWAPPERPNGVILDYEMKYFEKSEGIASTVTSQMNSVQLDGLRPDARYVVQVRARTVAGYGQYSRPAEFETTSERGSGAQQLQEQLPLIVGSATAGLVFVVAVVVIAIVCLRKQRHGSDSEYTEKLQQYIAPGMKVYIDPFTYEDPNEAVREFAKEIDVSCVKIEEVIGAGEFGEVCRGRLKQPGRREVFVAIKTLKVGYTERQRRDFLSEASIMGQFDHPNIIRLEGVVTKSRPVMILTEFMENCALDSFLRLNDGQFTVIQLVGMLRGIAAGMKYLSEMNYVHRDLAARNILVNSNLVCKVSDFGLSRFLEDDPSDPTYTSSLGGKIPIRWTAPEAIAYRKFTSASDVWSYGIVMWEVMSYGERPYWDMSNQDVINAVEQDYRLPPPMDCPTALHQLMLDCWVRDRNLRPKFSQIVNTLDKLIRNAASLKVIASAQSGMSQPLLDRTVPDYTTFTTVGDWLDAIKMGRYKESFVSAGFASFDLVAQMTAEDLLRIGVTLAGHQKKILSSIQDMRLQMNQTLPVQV
Method: as §1

[3] = target: T3, ~100 representative kinases (Homo sapiens, UniProt Q13043); settings: Protein STK4; DSF; average of three replicates
T3 construct: Recombinant protein kinase domains with a concentration of 2 μM
T3 sequence (Q13043 1-487): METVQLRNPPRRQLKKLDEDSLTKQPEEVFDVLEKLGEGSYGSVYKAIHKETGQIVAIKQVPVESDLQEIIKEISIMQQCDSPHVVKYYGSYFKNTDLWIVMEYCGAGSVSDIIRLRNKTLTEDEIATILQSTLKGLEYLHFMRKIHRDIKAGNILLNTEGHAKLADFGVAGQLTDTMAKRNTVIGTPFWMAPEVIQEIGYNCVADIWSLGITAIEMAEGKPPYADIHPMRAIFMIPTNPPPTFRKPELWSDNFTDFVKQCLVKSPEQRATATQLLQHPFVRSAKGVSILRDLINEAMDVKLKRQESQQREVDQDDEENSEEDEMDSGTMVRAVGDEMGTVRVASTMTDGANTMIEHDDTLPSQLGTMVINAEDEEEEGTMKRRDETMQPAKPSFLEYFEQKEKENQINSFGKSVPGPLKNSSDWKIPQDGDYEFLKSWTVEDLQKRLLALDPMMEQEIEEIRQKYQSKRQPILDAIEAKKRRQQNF
Method: as §1

[4] = target: T4, ~100 representative kinases (Homo sapiens, UniProt Q13873); settings: Protein BMPR2; average of three replicates
T4 construct: Recombinant protein kinase domains with a concentration of 2 μM
T4 sequence (Q13873 27-1038): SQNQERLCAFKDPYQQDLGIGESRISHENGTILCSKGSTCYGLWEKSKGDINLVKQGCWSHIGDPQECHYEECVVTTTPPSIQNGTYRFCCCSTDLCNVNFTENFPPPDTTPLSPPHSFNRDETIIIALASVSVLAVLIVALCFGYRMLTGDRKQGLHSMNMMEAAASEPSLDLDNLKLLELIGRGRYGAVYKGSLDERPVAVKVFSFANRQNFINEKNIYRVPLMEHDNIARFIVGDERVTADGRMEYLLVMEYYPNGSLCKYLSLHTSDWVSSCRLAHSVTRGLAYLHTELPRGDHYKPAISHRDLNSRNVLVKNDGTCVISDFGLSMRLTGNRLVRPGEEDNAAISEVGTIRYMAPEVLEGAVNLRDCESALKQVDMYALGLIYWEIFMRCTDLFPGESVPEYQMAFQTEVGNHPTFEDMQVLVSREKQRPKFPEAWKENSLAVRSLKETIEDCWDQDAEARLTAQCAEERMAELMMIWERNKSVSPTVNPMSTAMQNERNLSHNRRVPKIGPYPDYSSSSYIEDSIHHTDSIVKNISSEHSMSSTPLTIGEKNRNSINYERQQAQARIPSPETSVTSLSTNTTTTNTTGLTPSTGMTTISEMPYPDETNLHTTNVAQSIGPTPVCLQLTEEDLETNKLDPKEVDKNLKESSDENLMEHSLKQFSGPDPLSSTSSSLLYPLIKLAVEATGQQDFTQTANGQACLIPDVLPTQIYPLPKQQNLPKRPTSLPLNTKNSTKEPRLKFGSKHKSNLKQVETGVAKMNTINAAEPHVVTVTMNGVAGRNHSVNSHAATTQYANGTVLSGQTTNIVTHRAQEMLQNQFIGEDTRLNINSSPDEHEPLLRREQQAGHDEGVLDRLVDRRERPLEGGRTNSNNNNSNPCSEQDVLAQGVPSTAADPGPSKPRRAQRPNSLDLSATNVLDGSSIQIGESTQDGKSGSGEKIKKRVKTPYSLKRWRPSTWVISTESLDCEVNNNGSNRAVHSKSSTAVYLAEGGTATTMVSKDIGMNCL
Method: as §1

T1 sequence (Q13554 whole entry, the tested form may be a part): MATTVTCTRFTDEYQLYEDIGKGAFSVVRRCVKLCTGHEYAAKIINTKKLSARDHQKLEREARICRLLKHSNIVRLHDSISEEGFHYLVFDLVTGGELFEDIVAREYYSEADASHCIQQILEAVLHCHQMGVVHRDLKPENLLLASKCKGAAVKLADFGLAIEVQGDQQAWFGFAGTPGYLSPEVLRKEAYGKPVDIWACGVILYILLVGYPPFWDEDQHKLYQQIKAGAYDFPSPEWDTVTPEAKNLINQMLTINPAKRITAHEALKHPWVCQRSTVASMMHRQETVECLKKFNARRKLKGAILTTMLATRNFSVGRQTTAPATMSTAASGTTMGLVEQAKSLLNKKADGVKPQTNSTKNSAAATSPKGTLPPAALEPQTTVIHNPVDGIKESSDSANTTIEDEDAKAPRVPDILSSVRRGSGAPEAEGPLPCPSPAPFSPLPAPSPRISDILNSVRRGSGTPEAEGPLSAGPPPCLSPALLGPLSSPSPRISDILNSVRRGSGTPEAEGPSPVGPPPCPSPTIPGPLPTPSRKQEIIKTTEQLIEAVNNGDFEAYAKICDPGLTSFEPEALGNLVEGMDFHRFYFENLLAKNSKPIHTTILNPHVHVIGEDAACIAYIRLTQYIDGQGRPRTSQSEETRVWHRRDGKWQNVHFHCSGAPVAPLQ

Row | SMILES | dTm [1] [K] | dTm [2] [K] | dTm [3] [K] | dTm [4] [K]
1 | Cc1ccc(C(=O)Nc2ccc(CN3CCN(C)CC3)c(C(F)(F)F)c2)cc1C#Cc1c[nH]c2ncnc(N3CCOCC3)c12 [Compound 1] | 0.49 | 4.94 | 7.61 | 1.36
2 | O=C(Nc1ccc(F)cc1)C1(C(=O)Nc2cccc(-c3c[nH]c4ncnc(N5CCOCC5)c34)c2)CC1 [Compound 2] | 0.69 | 2.82 | 5.05 | 0.92
3 | O=C(Nc1cccc(-c2c[nH]c3ncnc(N4CCOCC4)c23)c1)c1cccn(-c2ccc(F)cc2)c1=O [Compound 4] | 0.73 | 3.66 | 7.31 | 0.82
4 | Cc1cc(NC(=O)C2(C(=O)Nc3ccc(F)cc3)CC2)cc(-c2c[nH]c3ncnc(N4CCOCC4)c23)c1 [Compound 6] | 1.87 | 0.34 | 0.00 | 0.52
5 | O=C(Nc1cccc(-c2c[nH]c3ncnc(N4CCOCC4)c23)c1)C1(C(=O)Nc2cccc3c2CCC3)CC1 [Compound 11] | 1.38 | 0.28 | -11.70 | 0.44
6 | O=C(Nc1ccccc1)C1(C(=O)Nc2cccc(-c3c[nH]c4ncnc(N5CCOCC5)c34)c2)CC1 [Compound 12] | 0.82 | 3.99 | 4.49 | 1.02
7 | O=C(Nc1ccc(Cl)cc1)C1(C(=O)Nc2cccc(-c3c[nH]c4ncnc(N5CCOCC5)c34)c2)CC1 [Compound 13] | 1.60 | 5.32 | 7.95 | 1.26
8 | Cc1ccc(NC(=O)C2(C(=O)Nc3cccc(-c4c[nH]c5ncnc(N6CCOCC6)c45)c3)CC2)cc1 [Compound 14] | 0.96 | 3.71 | 4.82 | 1.10
9 | CCc1ccc(NC(=O)C2(C(=O)Nc3cccc(-c4c[nH]c5ncnc(N6CCOCC6)c45)c3)CC2)cc1 [Compound 15] | 1.13 | 4.01 | 5.52 | 0.80
10 | COc1ccc(NC(=O)C2(C(=O)Nc3cccc(-c4c[nH]c5ncnc(N6CCOCC6)c45)c3)CC2)cc1 [Compound 16] | 0.11 | 0.59 | 2.68 | 0.48
11 | O=C(Nc1cccc(-c2c[nH]c3ncnc(N4CCOCC4)c23)c1)C1(C(=O)Nc2ccc(F)c(F)c2)CC1 [Compound 17] | 1.54 | 1.94 | 5.12 | 0.95
12 | O=C(Nc1cccc(-c2c[nH]c3ncnc(N4CCOCC4)c23)c1)C1(C(=O)Nc2ccc(F)c(Cl)c2)CC1 [Compound 18] | 2.15 | 2.57 | 6.48 | 1.13
13 | O=C(Nc1cccc(-c2c[nH]c3ncnc(N4CCOCC4)c23)c1)C1(C(=O)Nc2ccc(F)c(Br)c2)CC1 [Compound 19] | 2.00 | 1.12 | 0.00 | -0.62
14 | Cc1cc(NC(=O)C2(C(=O)Nc3cccc(-c4c[nH]c5ncnc(N6CCOCC6)c45)c3)CC2)ccc1F [Compound 20] | 1.78 | 3.99 | 7.44 | 1.32
15 | COc1cc(NC(=O)C2(C(=O)Nc3cccc(-c4c[nH]c5ncnc(N6CCOCC6)c45)c3)CC2)ccc1F [Compound 21] | 1.15 | 0.65 | 3.89 | 0.78
16 | CC(C)(C)c1cccc(NC(=O)C2(C(=O)Nc3cccc(-c4c[nH]c5ncnc(N6CCOCC6)c45)c3)CC2)c1 [Compound 22] | 2.01 | 0.59 | 5.49 | 0.10
17 | O=C(Nc1cccc(-c2c[nH]c3ncnc(N4CCOCC4)c23)c1)C1(C(=O)Nc2ccc(F)cc2F)CC1 [Compound 23] | 0.18 | 1.84 | 4.75 | 0.82
18 | Cc1cc(F)ccc1NC(=O)C1(C(=O)Nc2cccc(-c3c[nH]c4ncnc(N5CCOCC5)c34)c2)CC1 [Compound 24] | 0.23 | 1.32 | 4.47 | 0.57
19 | O=C(Nc1cccc(-c2c[nH]c3ncnc(N4CCOCC4)c23)c1)C1(C(=O)Nc2cc(Br)c(F)cc2F)CC1 [Compound 25] | 1.90 | -0.88 | 0.00 | 0.20
20 | O=C(Nc1cccc(-c2c[nH]c3ncnc(N4CCOCC4)c23)c1)C1(C(=O)Nc2ccc(F)c(Br)c2F)CC1 [Compound 26] | 1.60 | -0.51 | 0.00 | 0.05
21 | O=C(Nc1cc(F)cc(Br)c1)C1(C(=O)Nc2cccc(-c3c[nH]c4ncnc(N5CCOCC5)c34)c2)CC1 [Compound 27] | 1.75 | -2.17 | 0.00 | 0.25
22 | Cc1ccc(C(=O)Nc2ccc(CN3CCN(C)CC3)c(C(F)(F)F)c2)cc1C#Cc1cnc2[nH]ncc2c1 [GZD-824, reference compound] | 0.11 | 15.76 | 4.50 | 
23 | Cc1ccc(C(=O)Nc2ccc(CN3CCN(C)CC3)c(C(F)(F)F)c2)cc1C#Cc1cnc2cccnn12 [Ponatinib, reference compound] |  | 13.49 |  | 
24 | CN[C@@H]1C[C@H]2O[C@@](C)([C@@H]1OC)n1c3ccccc3c3c4c(c5c6ccccc6n2c5c31)C(=O)NC4 [Staurosporine] |  | 7.02 |  | 3.02
